Each structure is given as a SMILES string.

The subject of the assay is tonic extensor seizure. The assay is described as follows: Maximal Electroshock (MES) test, block of tonic extensor seizure, 45' post dose p.o. To be noted: for ED50: Mus musculus, po, 0.75 h; for ED50 / % block (MES test) / MES test results (activity in words) / MES test results (IA): mice, 45' post dose; for potency of 3-Me compound relative to 3-H compound (more potent than 3-H): MES ED50, Compd. No. 18 vs No. 17, No. 28 vs No. 27. Format: in vivo, mice. The arrangement: key to MES test results (IA): IA: Inactive. The source says:
Activity in the MES test, indicating anticonvulsant activity, is characterized by a block of the tonic extensor seizure caused by applying an electric shock to mice via corneal electrodes as described in Swinyard et al., J. Pharmacol. Exp. Ther., 106, 319-330 (1952) and recorded as % block. A more recent description of current practice in anticonvulsant drug screening has also been reported by Swinyard et al., Epilepsia, 19, 409-428 (1978).

[1] abbreviates: Table II, 200 mg/kg p.o., only dose tested.

`CN1CCSC1=NC(=O)Nc1ccccc1C(F)(F)F` [compound 11]: for the setting “Table II”, the 50% effective dose (ED50) was 92.2 mg/kg. `CN1CCSC1=NC(=O)Nc1c(Br)cc(F)cc1Br` [compound 31] came in with an ED50 (Table II) of less than 200 mg/kg. Further, under setting [1], the “% block (MES test)” value worked out at 80% and the “MES test results (activity in words)” value is “Active”. `Cc1cccc(NC(=O)N=C2SCCN2C)c1C` [compound 21]: the 50% effect level (Table II) (ED50) was put at a dose of 37.2 mg/kg. For the molecule `O=C(N=C1NCCS1)Nc1c(Cl)cccc1Cl` [compound 27], it took a dose of 70.7 mg/kg to reach the 50% effect level (Table II) (ED50).

Turning to `Cc1cccc(NC(=O)N=C2SCCN2C)c1` [compound 3], the 50% effective dose (ED50) (Table II) was less than 200 mg/kg. The “% block (MES test)” value under setting [1] amounted to 70%. In the case of `CN1CCSC1=NC(=O)Nc1c(F)cccc1F` [compound 29], under “Table II”, it took a dose of 22.7 mg/kg to reach the 50% effect level (ED50). As for `Cc1ccc(NC(=O)N=C2NCCS2)cc1C` [No. 22a, N-(3,4-dimethylphenyl)-N'-(2-thiazolidinylidene)urea], for the setting “Table II, p.o., dose not given”, the “MES test results (IA)” value was “IA”. Take `Cc1ccccc1NC(=O)N=C1NCCS1` [Table I No. 2, reference compound]: under “Table I”, it took a dose of 232 mg/kg to reach the 50% effect level (ED50). The “% block (MES test)” value (Table I, 200 mg/kg p.o.) is 30%.

Consider `Cc1ccc(NC(=O)N=C2SCCN2C)cc1` [compound 4], for which the “MES test results (IA)” value (Table II, 200 mg/kg p.o.) was “IA”. For the molecule `CN1CCSC1=NC(=O)Nc1cc(C(F)(F)F)cc(C(F)(F)F)c1` [compound 24], the “MES test results (IA)” value (Table II, 200 mg/kg p.o.) is “IA”. In the case of `COc1cccc(NC(=O)N=C2SCCN2C)c1` [compound 9], the ED50 (Table II) was less than 200 mg/kg. Besides, under setting [1], the “% block (MES test)” value was 80% and the “MES test results (activity in words)” value was “Active”.

In turn, `Cc1cccc(C)c1NC(=O)N=C1NCCS1` [compound 17] returned a 50% effective dose (ED50) (Table II) of 31 mg/kg. Still for that read-out and setting: for `COc1cccc(OC)c1NC(=O)N=C1SCCN1C` [compound 33] the value was 41.2 mg/kg. Where the note is “Table II”, `COc1ccc(NC(=O)N=C2SCCN2C)cc1OC` [compound 34] gave an ED50 greater than 200 mg/kg. Further, the “% block (MES test)” value under setting [1] came out at 20%. The molecule `Cc1cc(C)c(NC(=O)N=C2SCCN2C)c(C)c1` [compound 25] yielded an ED50 (Table II) of 66.5 mg/kg. The molecule `CCc1cccc(CC)c1NC(=O)N=C1SCCN1C` [compound 15] registered an ED50 (Table II) of 14.2 mg/kg. As for `Cc1cccc(C)c1NC(=O)N=C1SCCN1C` [compound 18], the “potency of 3-Me compound relative to 3-H compound (more potent than 3-H)” value came to 2.6 ×. This molecule showed an ED50 (Table II) of 11.8 mg/kg. `O=C(N=C1NCCS1)Nc1ccccc1` [Table I No. 1, reference compound] yielded an ED50 (Table I) greater than 200 mg/kg. As for `CN1CCSC1=NC(=O)Nc1cccc(Cl)c1` [compound 6], the “MES test results (IA)” value (Table II, 200 mg/kg p.o.) is “IA”. `CN1CCSC1=NC(=O)Nc1c(Br)cccc1Br` [compound 30]: the ED50 (Table II) was determined as 69.6 mg/kg. In the case of `CN1CCSC1=NC(=O)Nc1ccccc1Cl` [compound 5], for the setting “Table II”, the ED50 was less than 200 mg/kg. Besides, under setting [1], the “% block (MES test)” value turned out to be 70% and the “MES test results (activity in words)” value was “Active”.

On to `Cc1ccccc1NC(=O)N=C1SCCN1C` [compound 2], for which the 50% effect level (Table II) (ED50) was put at a dose of 4.8 mg/kg. Turning to `COc1ccc(NC(=O)N=C2SCCN2C)cc1` [compound 10], the “MES test results (IA)” value (Table II, 200 mg/kg p.o.) is given as “IA”. As to `Cc1ccc(NC(=O)N=C2SCCN2C)cc1C` [compound 22], the ED50 (Table II) was greater than 200 mg/kg. Moreover, under “Table II, p.o., dose not given”, the “% block (MES test)” value was found to be 10%. `COc1ccccc1NC(=O)N=C1SCCN1C` [compound 8] gave an ED50 (Table II) of 235 mg/kg. In the case of `CN1CCSC1=NC(=O)Nc1c(Cl)cc(Cl)cc1Cl` [compound 32], for the setting “Table II, 200 mg/kg p.o.”, the “MES test results (IA)” value is recorded as “IA”.

In the case of `Cc1ccc(NC(=O)N=C2SCCN2C)c(C)c1` [compound 20], the ED50 (Table II) came out at 178 mg/kg. As for `CN1CCSC1=NC(=O)Nc1cccc(C(F)(F)F)c1` [compound 12], the “MES test results (IA)” value (Table II, 200 mg/kg p.o.) is on record as “IA”.

As for `Cc1cc(C)cc(NC(=O)N=C2SCCN2C)c1` [compound 23], the “MES test results (IA)” value (Table II, 200 mg/kg p.o.) was “IA”.

For `CN1CCSC1=NC(=O)Nc1ccc([N+](=O)[O-])cc1` [compound 14], the “MES test results (IA)” value (Table II, 200 mg/kg p.o.) is “IA”.

Regarding `CN1CCSC1=NC(=O)Nc1ccc(Cl)cc1` [compound 7], the “MES test results (IA)” value (Table II, 200 mg/kg p.o.) is on record as “IA”. Molecule `Cc1cccc(Cl)c1NC(=O)N=C1SCCN1C` [compound 26] returned an ED50 (Table II) of 15.3 mg/kg. Consider `CN1CCSC1=NC(=O)Nc1ccccc1` [compound 1], for which the “MES test results (IA)” value (Table II, 100 mg/kg p.o., only dose tested) is given as “IA”. As for `Cc1ccc(C)c(NC(=O)N=C2SCCN2C)c1` [compound 19], it took a dose of 66.1 mg/kg to reach the 50% effect level (Table II) (ED50). On to `CCc1cccc(C)c1NC(=O)N=C1SCCN1C` [compound 16], for which the 50% effect level (Table II) (ED50) was put at a dose of 17.4 mg/kg. As for `CN1CCSC1=NC(=O)Nc1ccc(C(F)(F)F)cc1` [compound 13], the “MES test results (IA)” value (Table II, 200 mg/kg p.o.) is listed as “IA”. Regarding `CN1CCSC1=NC(=O)Nc1c(Cl)cccc1Cl` [compound 28], the “potency of 3-Me compound relative to 3-H compound (more potent than 3-H)” value worked out at 4 ×. For the same molecule, the ED50 (Table II) stood at 17.4 mg/kg.
